Reference: patent US20230126310A1 (priority 2020, published 2023)
pIC50: −log10 of the molar value. Structures can show the parent of a compound that is named as a salt. Where two headings read alike, the source gives them in different places.

System: SARS-CoV-2
Assay: microbe, parasite or virus in culture
Conditions: Severe acute respiratory syndrome coronavirus 2, Caco-2, 48 h; for inhibition at 10 µM: read-out: % Inh. (% Inhibition of SARS-CoV-2); for IC50: read-out: pIC50 (converted)

Work on `C[C@@H]1CN(Cc2ccc(F)cc2)[C@@H](C)CN1C(=O)c1cc2c(C(=O)C(=O)N(C)C)cn(C)c2cc1Cl` [talmapimod] yielded a pIC50 of 4.64, an inhibition at 10 µM of 92.3% and an IC50 of 22.9 µM.

In the case of `Nc1nc(Cl)nc2c1ncn2[C@@H]1O[C@H](CO)[C@@H](O)[C@H]1O` [2-chloroadenosine], the inhibition at 10 µM was 72.5%.

In the case of `CNCC(O)c1ccc(OC(=O)C(C)(C)C)c(OC(=O)C(C)(C)C)c1` (centres unmarked) [dipivefrine], the inhibition at 10 µM was 54%.

For `COc1cc(CN2CCN(c3ccc(F)cc3)CC2)cc(OC)c1OC` [1-(4-fluorophenyl)-4-(3,4,5-trimethoxybenzyl)piperazine], the inhibition at 10 µM was 67.3%.

For `COC(=O)Nc1nc2ccc(C(=O)c3cccs3)cc2[nH]1` [nocodazole], the inhibition at 10 µM was 66.1%.

In the case of `COC(=O)[C@H]1[C@H]2C[C@@H]3c4[nH]c5cc(OC)ccc5c4CCN3C[C@H]2C[C@@H](OC(=O)c2cc(OC)c(OC)c(OC)c2)[C@@H]1OC` [RESERPINE], the inhibition at 10 µM was 67.8%.

Molecule `N#C/C(=C1/SCC(c2ccccc2Cl)S1)n1ccnc1` (centres unmarked) [Lanoconazole] has an inhibition at 10 µM of 70.7%.

`CCNC(=O)c1noc(-c2cc(C(C)C)c(O)cc2O)c1-c1ccc(CN2CCOCC2)cc1` [Luminespib] was tested, and the inhibition at 10 µM was 104%.

With `FC(F)c1nc2ccccc2n1-c1nc(N2CCOCC2)nc(N2CCOCC2)n1` [ZSTK474] the inhibition at 10 µM was 90.9%.

For `CC(=O)Nc1cccc(-n2c(=O)n(C3CC3)c(=O)c3c(Nc4ccc(I)cc4F)n(C)c(=O)c(C)c32)c1` [Trametinib], the inhibition at 10 µM was 76.6%.

`O=C(O)c1ccccc1O` [SALICYLIC ACID] gave an inhibition at 10 µM of 71.3%.

With `CNC(=O)[C@@H](NC(=O)[C@H](CC(C)C)[C@H](O)C(=O)NO)C(C)(C)C` [Marimastat] the inhibition at 10 µM was 68.7%.

`CCOc1cc2ncc(C#N)c(Nc3ccc(OCc4cccc(F)c4)c(Cl)c3)c2cc1NC(=O)/C=C/CN(C)C` [HKI-357] showed an inhibition at 10 µM of 77.7%.

`COc1cccc([C@@H](C)NCCCc2ccccc2Cl)c1` [tecalcet] was tested, and the inhibition at 10 µM was 78.1%.

With `CC(=O)OCC(=O)[C@@]1(O)CC[C@H]2[C@@H]3CCC4=CC(=O)C=C[C@]4(C)[C@H]3[C@@H](O)C[C@@]21C` [PREDNISOLONE ACETATE] the inhibition at 10 µM was 60%.

`C=CCNc1c(O)cc2c(O)c1C[C@@H](C)C[C@H](OC)[C@H](O)[C@@H](C)/C=C(\C)[C@H](OC(N)=O)[C@@H](OC)/C=C\C=C(/C)C(=O)N2` [Retaspimycin (Hydrochloride)] showed an inhibition at 10 µM of 74.7%.

In the case of `COc1ccc(CCNCC(O)COc2cccc(C)c2)cc1OC` (centres unmarked) [Bevantolol HCl], the inhibition at 10 µM was 77.1%.

With `CN1CCN(c2ccc(C(=O)Nc3n[nH]c4ccc(Cc5cc(F)cc(F)c5)cc34)c(NC3CCOCC3)c2)CC1` [Entrectinib (RXDX-101), Entrectinib] the inhibition at 10 µM was 70%.

Molecule `CCc1nn(CCCN2CCN(c3cccc(Cl)c3)CC2)c(=O)n1CCOc1ccccc1` [NEFAZODONE HYDROCHLORIDE] has an inhibition at 10 µM of 71.7%.

For `C1CCC(C(CC2CCCCN2)C2CCCCC2)CC1` (centres unmarked) [PERHEXILINE MALEATE], the inhibition at 10 µM was 55.4%.

For `COC(=O)C1=C(C)NC(C)=C(C(=O)O[C@H]2CCN(Cc3ccccc3)C2)[C@H]1c1cccc([N+](=O)[O-])c1` [Barnidipine HCl], the pIC50 was 4.61, the inhibition at 10 µM was 83.5% and the IC50 was 24.5 µM.

With `CC(C)Oc1ccc2c(=O)c(-c3ccccc3)coc2c1` [IPRIFLAVONE] the inhibition at 10 µM was 51.4%.

`Clc1ccc(C(Cn2ccnc2)OCc2csc3c(Cl)cccc23)c(Cl)c1` (centres unmarked) [Sertaconazole nitrate] showed an inhibition at 10 µM of 88.9%.

`c1ccc2c(c1)[I+]c1ccccc1-2` [diphenyleneiodonium] was tested, and the inhibition at 10 µM was 55.5%.

Work on `O=C(NC[C@H](O)CO)c1ccncc1Nc1ccc(I)cc1F` [Pimasertib (AS-703026), Pimasertib] yielded an inhibition at 10 µM of 53.2%.

Work on `CS(=O)(=O)CCNCc1nc(-c2ccc3ncnc(Nc4ccc(OCc5cccc(F)c5)c(Cl)c4)c3c2)cs1` [GW-583340] yielded an inhibition at 10 µM of 60.1%.

`COc1ccc(S(=O)(=O)N2CCC[C@H]2C(=O)Nc2cc(C)cc(C)c2)cc1` [ACT-462206] was tested, and the inhibition at 10 µM was 53.8%.

For `COc1cc(C)c2c(Oc3cccc(C(F)(F)F)c3)c(OC)cc(NC(C)CCCN)c2n1` (centres unmarked) [tafenoquine], the inhibition at 10 µM was 90%.
